Data from ChEMBL document CHEMBL3046232, “Synthesis, pharmacological evaluation and molecular docking studies of indanone derivatives” (2012).

Assays:
Type in all cases: functional
Aspergillus niger [1] = assay: Antimicrobial activity against at Aspergillus niger at 100 ug/ml by cup-plate method; details: read-out: IZ
Penicillium chrysogenum [2] = assay: Antimicrobial activity against at Penicillium chrysogenum at 100 ug/ml by cup-plate method; details: read-out: IZ
Bacillus subtilis [3] = assay: Antimicrobial activity against at Bacillus subtilis at 25 ug/ml by cup plate method; details: read-out: IZ
Bacillus subtilis [4] = assay: Antimicrobial activity against at Bacillus subtilis at 100 ug/ml by cup plate method; details: read-out: IZ
Penicillium chrysogenum [5] = assay: Antimicrobial activity against at Penicillium chrysogenum at 25 ug/ml by cup-plate method; details: read-out: IZ
Rattus norvegicus [6] = assay: Anti-inflammatory activity in Rattus norvegicus Wistar albino (rat) assessed as protection against carrageenan-induced paw edema at 50 mg/kg after 3 hr
Penicillium chrysogenum [7] = assay: Antimicrobial activity against at Penicillium chrysogenum at 50 ug/ml by cup-plate method; details: read-out: IZ
Mus musculus [8] = assay: Analgesic activity in Mus musculus Swiss albino (mouse) assessed as increase in reaction time of paw licking or jump response at 50 mg/kg, po after 60 min by hot plate method
Rattus norvegicus [9] = assay: Anti-inflammatory activity in Rattus norvegicus Wistar albino (rat) assessed as protection against carrageenan-induced paw edema at 50 mg/kg after 2 hr
Aspergillus niger [10] = assay: Antimicrobial activity against at Aspergillus niger at 25 ug/ml by cup-plate method; details: read-out: IZ
Bacillus subtilis [11] = assay: Antimicrobial activity against at Bacillus subtilis at 50 ug/ml by cup plate method; details: read-out: IZ
Rattus norvegicus [12] = assay: Anti-inflammatory activity in Rattus norvegicus Wistar albino (rat) assessed as protection against carrageenan-induced paw edema at 50 mg/kg after 60 min
Rattus norvegicus [13] = assay: Anti-inflammatory activity in Rattus norvegicus Wistar albino (rat) assessed as protection against carrageenan-induced paw edema at 50 mg/kg after 90 min
Mus musculus [14] = assay: Analgesic activity in Mus musculus Swiss albino (mouse) assessed as increase in reaction time of paw licking or jump response at 50 mg/kg, po after 30 min by hot plate method
Aspergillus niger [15] = assay: Antimicrobial activity against at Aspergillus niger at 50 ug/ml by cup-plate method; details: read-out: IZ
Escherichia coli [16] = assay: Antimicrobial activity against at Escherichia coli at 100 ug/ml by cup-plate method; details: read-out: IZ
Escherichia coli [17] = assay: Antimicrobial activity against at Escherichia coli at 50 ug/ml by cup-plate method; details: read-out: IZ
Mus musculus [18] = assay: Analgesic activity in Mus musculus Swiss albino (mouse) assessed as increase in reaction time of paw licking or jump response at 50 mg/kg, po after 90 min by hot plate method
Rattus norvegicus [19] = assay: Anti-inflammatory activity in Rattus norvegicus Wistar albino (rat) assessed as protection against carrageenan-induced paw edema at 50 mg/kg after 30 min
Escherichia coli [20] = assay: Antimicrobial activity against at Escherichia coli at 25 ug/ml by cup-plate method; details: read-out: IZ
Mus musculus [21] = assay: Analgesic activity in Mus musculus Swiss albino (mouse) assessed as increase in reaction time of paw licking or jump response at 20 mg/kg, po after 60 min by hot plate method
Mus musculus [22] = assay: Analgesic activity in Mus musculus Swiss albino (mouse) assessed as increase in reaction time of paw licking or jump response at 20 mg/kg, po after 90 min by hot plate method

O=C1c2ccccc2-c2noc(-c3ccc([N+](=O)[O-])cc3)c21
zone of inhibition at 100 µg/mL (Aspergillus niger [1]): 16.2 mm
zone of inhibition at 100 µg/mL (Penicillium chrysogenum [2]): 15 mm
zone of inhibition at 25 µg/mL (Bacillus subtilis [3]): 4.5 mm
zone of inhibition at 100 µg/mL (Bacillus subtilis [4]): 14.5 mm
zone of inhibition at 25 µg/mL (Penicillium chrysogenum [5]): 4.5 mm
Activity (Rattus norvegicus [6]): 17.21%
zone of inhibition at 50 µg/mL (Penicillium chrysogenum [7]): 11 mm
Activity (Mus musculus [8]): 5.91%
Activity (Rattus norvegicus [9]): 16.21%
zone of inhibition at 25 µg/mL (Aspergillus niger [10]): 4.75 mm
zone of inhibition at 50 µg/mL (Bacillus subtilis [11]): 6.75 mm
Activity (Rattus norvegicus [12]): 13.35%
Activity (Rattus norvegicus [13]): 18.51%
Activity (Mus musculus [14]): 3.95%
zone of inhibition at 50 µg/mL (Aspergillus niger [15]): 13.5 mm
zone of inhibition at 100 µg/mL (Escherichia coli [16]): 18.5 mm
zone of inhibition at 50 µg/mL (Escherichia coli [17]): 13 mm
Activity (Mus musculus [18]): 8.55%
Activity (Rattus norvegicus [19]): 10.92%
zone of inhibition at 25 µg/mL (Escherichia coli [20]): 5.5 mm

O=C([O-])Cc1ccccc1Nc1c(Cl)cccc1Cl.[Na+] [DICLOFENAC SODIUM]
Activity (Mus musculus [21]): 27.59%
Activity (Mus musculus [22]): 34.62%
